A word on the IC50: it is the concentration needed to halve the response being measured. The low end stands for greater potency, the high end for weaker potency. As a reminder, the half-life is the time needed for the level to fall by half in the phase considered. High values mean slow loss, low ones fast loss. By bioavailability is commonly meant dose-corrected exposure relative to a reference, in per cent.

Data on 30 compounds can be found in ChEMBL document CHEMBL1158637, “Orally bioavailable dual MMP-1/MMP-14 sparing, MMP-13 selective alpha-sulfone hydroxamates” (Bioorg Med Chem Lett, 2010).

Data set [1] is described as follows: Selectivity ratio of IC50 for MMP2 to IC50 for MMP13.
In data set [2] the target is 72 kDa type IV collagenase (Homo sapiens, UniProt P08253). The data set is described as follows: Inhibition of MMP2.
In a further data set the target is Collagenase 3 (Homo sapiens, UniProt P45452). The data set is described as follows: Inhibition of MMP13.
Another data set concerns the target Interstitial collagenase (Homo sapiens, UniProt P03956). The data set is described as follows: Inhibition of MMP1.
A further data set deals with Stromelysin-1 (Homo sapiens, UniProt P08254). The data set is described as follows: Inhibition of MMP3.
The target in a further data set is Neutrophil collagenase (Homo sapiens, UniProt P22894). The data set is described as follows: Inhibition of MMP8.
Data set [3] can be described thus: Half life in rat. It counts as ADME, organism-based. Particulars: in vivo.
Data set [4] in a line: Oral bioavailability in rat. It counts as ADME, organism-based. Particulars: in vivo.
The next data set has as its target T1, Matrilysin (Homo sapiens, UniProt P09237).
T1 sequence (P09237 whole entry): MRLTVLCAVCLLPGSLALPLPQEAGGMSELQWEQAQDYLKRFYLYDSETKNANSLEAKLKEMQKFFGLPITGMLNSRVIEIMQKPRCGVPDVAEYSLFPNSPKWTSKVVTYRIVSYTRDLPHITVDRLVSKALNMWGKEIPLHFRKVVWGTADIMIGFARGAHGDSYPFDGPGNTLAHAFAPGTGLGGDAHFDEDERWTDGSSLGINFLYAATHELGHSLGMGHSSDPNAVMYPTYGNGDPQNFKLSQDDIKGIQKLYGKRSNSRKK
The data set can be described thus: Inhibition of MMP7.

Neutrophil collagenase, sequence (P22894 whole entry): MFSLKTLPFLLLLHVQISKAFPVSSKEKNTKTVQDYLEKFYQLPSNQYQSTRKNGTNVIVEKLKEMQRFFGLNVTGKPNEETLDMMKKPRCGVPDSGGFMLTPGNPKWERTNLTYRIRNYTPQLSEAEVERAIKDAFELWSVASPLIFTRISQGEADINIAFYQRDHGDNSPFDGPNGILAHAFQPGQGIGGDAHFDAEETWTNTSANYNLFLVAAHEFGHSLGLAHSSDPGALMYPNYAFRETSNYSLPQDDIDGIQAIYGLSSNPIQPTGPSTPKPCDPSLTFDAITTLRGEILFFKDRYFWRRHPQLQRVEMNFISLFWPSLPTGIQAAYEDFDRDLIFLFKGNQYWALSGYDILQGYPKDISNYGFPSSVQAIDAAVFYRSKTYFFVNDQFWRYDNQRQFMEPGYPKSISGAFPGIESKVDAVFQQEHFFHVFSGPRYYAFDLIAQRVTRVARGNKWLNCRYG
Interstitial collagenase, sequence (P03956 whole entry): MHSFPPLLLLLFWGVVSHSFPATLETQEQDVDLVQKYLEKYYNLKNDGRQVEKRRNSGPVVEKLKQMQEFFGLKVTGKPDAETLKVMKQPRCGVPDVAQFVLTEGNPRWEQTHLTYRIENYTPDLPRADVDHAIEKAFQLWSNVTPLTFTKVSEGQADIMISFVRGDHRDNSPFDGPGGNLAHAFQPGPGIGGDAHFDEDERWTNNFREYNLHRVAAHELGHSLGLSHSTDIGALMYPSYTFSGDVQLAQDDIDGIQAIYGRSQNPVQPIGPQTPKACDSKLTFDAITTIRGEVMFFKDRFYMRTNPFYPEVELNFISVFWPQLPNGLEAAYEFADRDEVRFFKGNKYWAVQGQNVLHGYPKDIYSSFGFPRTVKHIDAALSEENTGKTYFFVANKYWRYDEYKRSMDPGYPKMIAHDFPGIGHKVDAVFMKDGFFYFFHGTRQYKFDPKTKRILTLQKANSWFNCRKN
Stromelysin-1, sequence (P08254 whole entry): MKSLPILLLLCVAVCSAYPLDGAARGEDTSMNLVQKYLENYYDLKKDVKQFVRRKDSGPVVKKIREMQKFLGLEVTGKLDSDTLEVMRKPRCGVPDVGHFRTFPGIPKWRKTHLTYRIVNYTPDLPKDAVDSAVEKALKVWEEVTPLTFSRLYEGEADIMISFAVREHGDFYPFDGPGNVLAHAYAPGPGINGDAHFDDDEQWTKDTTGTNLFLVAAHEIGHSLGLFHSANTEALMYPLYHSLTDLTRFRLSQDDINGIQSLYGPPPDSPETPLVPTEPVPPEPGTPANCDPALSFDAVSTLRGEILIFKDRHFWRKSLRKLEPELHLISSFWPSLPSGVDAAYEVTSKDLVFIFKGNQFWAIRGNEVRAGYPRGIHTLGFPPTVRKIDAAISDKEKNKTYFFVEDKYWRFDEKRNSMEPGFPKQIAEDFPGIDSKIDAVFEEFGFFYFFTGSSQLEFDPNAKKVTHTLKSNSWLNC
72 kDa type IV collagenase, sequence (P08253 whole entry): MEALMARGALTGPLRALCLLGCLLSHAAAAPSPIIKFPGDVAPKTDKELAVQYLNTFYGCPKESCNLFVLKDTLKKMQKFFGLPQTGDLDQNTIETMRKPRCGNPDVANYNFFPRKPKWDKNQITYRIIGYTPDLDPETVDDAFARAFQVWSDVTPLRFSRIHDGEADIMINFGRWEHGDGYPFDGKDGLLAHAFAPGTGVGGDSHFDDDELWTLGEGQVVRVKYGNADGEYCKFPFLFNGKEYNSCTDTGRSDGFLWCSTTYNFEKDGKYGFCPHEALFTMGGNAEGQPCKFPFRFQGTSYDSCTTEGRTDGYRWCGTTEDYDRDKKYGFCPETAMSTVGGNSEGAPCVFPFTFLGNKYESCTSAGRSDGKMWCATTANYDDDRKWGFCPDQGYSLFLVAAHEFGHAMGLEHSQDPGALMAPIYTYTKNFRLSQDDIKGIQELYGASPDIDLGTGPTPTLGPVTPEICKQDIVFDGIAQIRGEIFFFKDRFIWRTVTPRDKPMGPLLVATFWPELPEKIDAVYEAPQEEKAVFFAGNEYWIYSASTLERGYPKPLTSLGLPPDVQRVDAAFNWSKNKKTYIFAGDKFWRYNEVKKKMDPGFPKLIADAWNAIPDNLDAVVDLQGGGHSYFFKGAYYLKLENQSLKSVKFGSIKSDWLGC

For the compound `Cc1ccccc1N1CCN(c2ccc(S(=O)(=O)C3(C(=O)NO)CCOCC3)cc2)CC1`, the Ratio IC50 in [1] was found to be 11.4.

Consider `COc1ccccc1C1CCN(c2ccc(S(=O)(=O)C3(C(=O)NO)CCOCC3)cc2)CC1`, for which the Ratio IC50 in data set [1] was 211. In addition, the IC50 came out at 3700 nM in [2] and 17.5 nM on Collagenase 3.

In the case of `O=C(NO)C1(S(=O)(=O)c2ccc(N3CCN(c4ccccc4F)CC3)cc2)CCOCC1`, the Ratio IC50 in data set [1] turned out to be 7.8.

Take `O=C(NO)C1(S(=O)(=O)c2ccc(N3CCC(c4ccccc4O)CC3)cc2)CCOCC1`: in data set [1], the Ratio IC50 is 6.2.

Turning to `COc1ccc(C(C)C)cc1C1CCN(c2ccc(S(=O)(=O)C3(C(=O)NO)CCOCC3)cc2)CC1`, the Ratio IC50 in data set [1] worked out at 143. Besides, the IC50 is greater than 10000 nM in [2] and 70 nM at Collagenase 3.

Take `O=C(NO)C1(S(=O)(=O)c2ccc(N3CCN(c4cccc(C(F)(F)F)c4)CC3)cc2)CCOCC1`: the Ratio IC50 in data set [1] turned out to be 16.5. Besides, the IC50 stood at 330 nM in data set [2] and 20 nM against Collagenase 3.

Take `CCOc1ccccc1C1CCN(c2ccc(S(=O)(=O)C3(C(=O)NO)CCOCC3)cc2)CC1`: in data set [1], the Ratio IC50 was 88.6.

With `COc1ccccc1N1CCN(c2ccc(S(=O)(=O)C3(C(=O)NO)CCOCC3)cc2)CC1`, in [1], the Ratio IC50 is 2.8.

`O=C(NO)C1(S(=O)(=O)c2ccc(N3CCN(c4ccccc4)CC3)cc2)CCN(C2CC2)CC1`: in [1], the Ratio IC50 is 1.6. Further, the IC50 turned out to be 5.4 nM in data set [2] and 3.3 nM against Collagenase 3.

Turning to `O=C(NO)C1(S(=O)(=O)c2ccc(N3CCN(c4ccc(Cl)cc4)CC3)cc2)CCOCC1`, the IC50 was greater than 10 µM against Interstitial collagenase; 130 nM against Stromelysin-1; 3.7 nM in data set [2]; 1 nM at Collagenase 3; 1000 nM against Neutrophil collagenase. Further, the half-life in [3] was 115 min. The same compound returned a bioavailability in data set [4] of 7.4%.

`O=C(NO)C1(S(=O)(=O)c2ccc(N3CCC(c4ccccc4Cl)CC3)cc2)CCOCC1`: the Ratio IC50 in [1] stood at 1.9. For the same compound, the IC50 in data set [2] was 82 nM; against Collagenase 3 it was 42.5 nM.

Turning to `O=C(NO)C1(S(=O)(=O)c2ccc(N3CCC(c4ccccc4)CC3)cc2)CCOCC1`, the Ratio IC50 in data set [1] amounted to 0.7.

On to `COc1cccc(N2CCN(c3ccc(S(=O)(=O)C4(C(=O)NO)CCOCC4)cc3)CC2)c1`, for which, in data set [1], the Ratio IC50 was found to be 6.1. Further, the values for the IC50 (in data set [2]; at Collagenase 3) were 48.5 nM and 8 nM, respectively.

For the compound `Cc1ccc(N2CCN(c3ccc(S(=O)(=O)C4(C(=O)NO)CCOCC4)cc3)CC2)cc1`, in [1], the Ratio IC50 came out at 18.4.

As to `Cc1ccc(N2CCN(c3ccc(S(=O)(=O)C4(C(=O)NO)CCOCC4)cc3)CC2)c(C)c1`, in [1], the Ratio IC50 was 49. Further, the IC50 was 1400 nM in [2] and 28.6 nM on Collagenase 3.

`O=C(NO)C1(S(=O)(=O)c2ccc(N3CCN(c4ccccc4)CC3)cc2)CCOCC1`: the Ratio IC50 in [1] is 13.8.

Regarding `C#CCN1CCC(C(=O)NO)(S(=O)(=O)c2ccc(Sc3ccccc3)cc2)CC1`, the half-maximal inhibitory concentration (IC50) was greater than 10 µM against Matrilysin; 8.66 µM against Interstitial collagenase; 13 nM at Stromelysin-1; 0.33 nM in data set [2]; 1.8 nM on Neutrophil collagenase.

In the case of `O=C(NO)C1(S(=O)(=O)c2ccc(N3CCN(c4ccc(C(F)(F)F)cc4)CC3)cc2)CCOCC1`, the IC50 against Matrilysin is greater than 10 µM; against Interstitial collagenase it was greater than 10 µM; at Stromelysin-1 it was 300 nM; in data set [2], 12.1 nM; against Collagenase 3 it was 0.6 nM; against Neutrophil collagenase, 670 nM. The same compound had a half-life in [3] of 155 min. Besides, the bioavailability in [4] was determined as 16.3%.

As to `O=C(NO)C1(S(=O)(=O)c2ccc(N3CCN(c4ccc(C(F)(F)F)cc4)CC3)cc2)CCN(C2CC2)CC1`, the Ratio IC50 in data set [1] stood at 13.6. Also, the IC50 was found to be 32.6 nM in data set [2] and 2.4 nM against Collagenase 3.

Consider `COc1ccc(N2CCN(c3ccc(S(=O)(=O)C4(C(=O)NO)CCOCC4)cc3)CC2)cc1`, for which, in [1], the Ratio IC50 is 29. The IC50 in data set [2] amounted to 18.4 nM; at Collagenase 3, 0.5 nM.

Consider `O=C(NO)C1(S(=O)(=O)c2ccc(N3CCC(c4ccccc4C(F)(F)F)CC3)cc2)CCOCC1`, for which the Ratio IC50 in data set [1] was determined as 31.3.

As for `COc1ccc(OC)c(C2CCN(c3ccc(S(=O)(=O)C4(C(=O)NO)CCOCC4)cc3)CC2)c1`, the Ratio IC50 in [1] came to 70.2. For the same compound, the figures for the IC50 (in [2]; on Collagenase 3) were 800 nM and 11.4 nM, respectively.

As for `COc1ccc(N2CCN(c3ccc(S(=O)(=O)C4(C(=O)NO)CCN(C5CC5)CC4)cc3)CC2)cc1`, the IC50 is greater than 10 µM against Interstitial collagenase; 24.5 nM against Stromelysin-1; 5.3 nM in [2]; 0.42 nM on Collagenase 3; 59.2 nM against Neutrophil collagenase. The half-life in data set [3] is 14.4 min. The same compound showed a bioavailability in data set [4] of 20.7%.

Take `Cc1ccccc1C1CCN(c2ccc(S(=O)(=O)C3(C(=O)NO)CCOCC3)cc2)CC1`: the Ratio IC50 in data set [1] amounted to 21.4. Besides, the IC50 worked out at 700 nM in data set [2] and 32.7 nM on Collagenase 3.

With `O=C(NO)C1(S(=O)(=O)c2ccc(N3CCC(c4ccc(Cl)cc4)CC3)cc2)CCOCC1`, in data set [1], the Ratio IC50 stood at 2.9.

As to `O=C(NO)C1(S(=O)(=O)c2ccc(N3CCC(c4cccc5ccccc45)CC3)cc2)CCOCC1`, in data set [1], the Ratio IC50 turned out to be 43.9.

`O=C(NO)C1(S(=O)(=O)c2ccc(N3CCC(c4ccccc4-c4ccc(F)cc4)CC3)cc2)CCOCC1`: the Ratio IC50 in data set [1] worked out at 160.

`COc1ccc(C2CCN(c3ccc(S(=O)(=O)C4(C(=O)NO)CCOCC4)cc3)CC2)c(C)c1`: the Ratio IC50 in [1] stood at 72.1.

Consider `O=C(NO)C1(S(=O)(=O)c2ccc(N3CCN(c4ccccc4Cl)CC3)cc2)CCOCC1`, for which, in data set [1], the Ratio IC50 stood at 4.4.

For `COc1ccc(C2CCN(c3ccc(S(=O)(=O)C4(C(=O)NO)CCOCC4)cc3)CC2)c(OC)c1`, in [1], the Ratio IC50 turned out to be 159.
